Source: patent US20160326558A1, “Process for Stimulating Hyaluronic Acid Production with Ascorbic Acid Derivatives and the Composition Thereof” (CORUM INC., priority 2012, published 2016)
Several values for one entry are separate records, joined by “and”; a condition that tells them apart may be missing. Equal entries are not always repeated. Entries after “also recorded” stand apart in the source; their conditions may differ.

Legend:
Format in all cases: cell-based
[1] = system: mouse fibroblast (3T3); assay: Stimulating hyaluronic acid production in mouse fibroblast, R&D HA-ELISA (Examples 3 and 5); conditions: for Hyaluronic Acid Content Stimulated, Average / Hyaluronic Acid Content Stimulated, single entries: 72 h, vs negative control = 100%
Protocol: (§1) Complete medium is used in cell seeding stage. The confluent 3T3 cells are rinsed with sterile D-PBS, and trypsinize all cells and perform cell counting. Then, dilute the cell density to 4E+04/mL and seed 0.5 mL cell liquid (equals to 2E+04 cells) each well in 24 well plates. Incubate 3T3 cells at 37° C., 5% CO2 for about 24 hours. Starvation medium is used in this stage. The 24-hour-cultured 3T3 cells are rinsed with sterile D-PBS and discarded rinse buffer. Controls and testing materials in different concentrations are respectively added into the 3T3 cells in 24 well plates. Then, the 3T3 cells are incubated at 37° C., with 5% CO2 for about 72 hours. After incubating for about 72 hours, transfer some supernatant of cells treated with controls and testing materials into new containers. Centrifuge the supernatants at 2000 rpm for 5˜10 minutes. The hyaluronic acid content of the centrifuged supernatants are respectively determined by Hyaluronan Enzyme-Linked Immunosorbent Assay Kit, and calculated with the following Formula 1. [formula] In this example, we try another brand HA-ELISA kit (R&D; Cat No. DHYAL0) to figure out the reproducibility of the stimulatory effect. Excluding replacing the HA-ELISA kit, the materials and the procedures can be referred to the above Example 1. In this example, we try to figure out whether the stimulatory effect also can be found on ascorbic acid. Excluding replacing the HA-ELISA kit to another brand HA-ELISA kit (R&D; Cat No. DHYAL0) and replacing the testing material to ascorbic acid, the other materials and the procedures can be referred to the above Example 1.

[2] = system: mouse fibroblast (3T3); assay: Hyaluronic acid content stimulated by 3-O-ethyl ascorbic acid and AA2G in mouse fibroblast (Table 6); conditions: for Hyaluronic Acid Content Stimulated, Average / Hyaluronic Acid Content Stimulated, single entries: vs negative control = 100%
[3] = system: mouse fibroblast (3T3); assay: Stimulating hyaluronic acid production in mouse fibroblast, Echelon HA-ELISA (Example 1)
From the text: (§2) Cell Line: 3T3 (BCRC 60071, purchased from Bioresource Collection and Research Center) Complete Medium (as positive control): DMEM medium with 10% Fetal Bovine Serum (DMEM purchased from Corning Incorporated and Caisson Labs; FBS purchased from Caisson Labs) Starvation Medium (as negative control): DMEM medium with 0.1% Bovine Serum (DMEM purchased from Corning Incorporated and Caisson Labs; FBS purchased from Caisson Labs) Hyaluronan Enzyme-Linked Immunosorbent Assay Kit (HA-ELISA) (Brand: Echelon/Cat No K-1200) Complete medium is used in cell seeding stage. The confluent 3T3 cells are rinsed with sterile D-PBS, and trypsinize all cells and perform cell counting. Then, dilute the cell density to 4E+04/mL and seed 0.5 mL cell liquid (equals to 2E+04 cells) each well in 24 well plates. Incubate 3T3 cells at 37° C., 5% CO2 for about 24 hours. Starvation medium is used in this stage. The 24-hour-cultured 3T3 cells are rinsed with sterile D-PBS and discarded rinse buffer. Controls and testing materials in different concentrations are respectively added into the 3T3 cells in 24 well plates. Then, the 3T3 cells are incubated at 37° C., with 5% CO2 for about 72 hours. After incubating for about 72 hours, transfer some supernatant of cells treated with controls and testing materials into new containers. Centrifuge the supernatants at 2000 rpm for 5˜10 minutes. The hyaluronic acid content of the centrifuged supernatants are respectively determined by Hyaluronan Enzyme-Linked Immunosorbent Assay Kit, and calculated with the following Formula 1. [formula]

[4] = system: human fibroblast (Hs68); assay: Cell viability of human fibroblast (Example 2); conditions: 10000 ppm
[5] = system: human fibroblast (Hs68); assay: Stimulating hyaluronic acid production in human fibroblast, R&D HA-ELISA (Example 4); conditions: for Hyaluronic Acid Content Stimulated, Average / Hyaluronic Acid Content Stimulated, single entries: 72 h, vs negative control = 100%
Protocol: as §1, with “Hs68” for “3T3”, “treating” for “treated”, “2.” for “1.”, “study” for “figure out”, “2.” for “1. In this example, we try to figure out whether the stimulatory effect also can be found on ascorbic acid. Excluding replacing the HA-ELISA kit to another brand HA-ELISA kit (R&D; Cat No. DHYAL0) and replacing the testing material to ascorbic acid, the other materials and the procedures can be referred to the above Example 1.”

[6] = system: human fibroblast (Hs68); assay: Stimulating hyaluronic acid production in human fibroblast, Echelon HA-ELISA (Example 2); conditions: for Hyaluronic Acid Content Stimulated, Average / Hyaluronic Acid Content Stimulated, single entries: 72 h, vs negative control = 100%
From the text: as §2, with “Hs68” for “3T3”, “60038,” for “60071,”, “0.1% Fetal” for “0.1%”, “treating” for “treated”, “2.” for “1.”

[7] = system: mouse fibroblast (3T3); assay: Cell viability of mouse fibroblast (Example 1); conditions: concentration larger than 7500 ppm
[8] = 5000 ppm, 72 h, vs negative control = 100%

CCOC1=C(O)C(=O)O[C@@H]1[C@@H](O)CO [3-O-ethyl-ascorbic acid]
Hyaluronic Acid Content Stimulated, Average ([1]; 1.25 ppm): 143.0%
Hyaluronic Acid Content Stimulated, single entries ([1]; 1.25 ppm): 100.0% and 156.8% and 172.0%
Hyaluronic Acid Content Stimulated, Average ([1]; 2.5 ppm): 145.9%
Hyaluronic Acid Content Stimulated, single entries ([1]; 2.5 ppm): 119.7% and 135.2% and 182.8%
Hyaluronic Acid Content Stimulated, Average ([1]; 5 ppm): 137.1%
Hyaluronic Acid Content Stimulated, Average ([1]; 7.5 ppm): 135.9%
Hyaluronic Acid Content Stimulated, single entries ([1]; 7.5 ppm): 115.9% and 143.8% and 148.1%
Hyaluronic Acid Content Stimulated, Average ([1]; 10 ppm, Table 3): 147.1%
Hyaluronic Acid Content Stimulated, single entries ([1]; 10 ppm, Table 3): 101.0% and 158.1% and 182.2%
Hyaluronic Acid Content Stimulated, Average ([1]; 100 ppm, Table 3): 171.2%
Hyaluronic Acid Content Stimulated, single entries ([1]; 100 ppm, Table 3): 166.8% and 155.7% and 191.2%
Hyaluronic Acid Content Stimulated, Average ([1]; 1000 ppm): 177.8%
Hyaluronic Acid Content Stimulated, Average ([1]; 2500 ppm): 159.3%
Hyaluronic Acid Content Stimulated, single entries ([1]; 2500 ppm): 148.7% and 176.3% and 152.8%
stimulated hyaluronic acid production, dose dependence (in words) ([1]; 5000-5 ppm): dose-dependently
Hyaluronic Acid Content Stimulated, Average ([1]; 5000 ppm): 184.2%
Hyaluronic Acid Content Stimulated, single entries ([1]; 5000 ppm): 131.8% and 180.4%
Hyaluronic Acid Content Stimulated, Average ([1]; 7500 ppm): 143.8%
Hyaluronic Acid Content Stimulated, single entries ([1]; 7500 ppm): 119.9% and 130.8% and 180.7%
Hyaluronic Acid Content Stimulated, Average ([1]; 10000 ppm): 109.0%
Hyaluronic Acid Content Stimulated, Average ([2]; 10 ppm): 122%
Hyaluronic Acid Content Stimulated, single entries ([2]; 10 ppm): 125% and 122% and 118%
Hyaluronic Acid Content Stimulated, Average ([2]; 100 ppm): 138%
Hyaluronic Acid Content Stimulated, single entries ([2]; 100 ppm): 115% and 161% and 138%
Hyaluronic Acid Content Stimulated, Average ([2]; 1000 ppm): 171%
Hyaluronic Acid Content Stimulated, single entries ([2]; 1000 ppm): 180% and 165% and 168%
stimulatory of producing hyaluronic acid (in words) ([2]; Table 6, 10-1000 ppm): helpful to the stimulatory of producing hyaluronic acid
stimulated hyaluronic acid production (in words) ([3]; 10-5000 ppm): efficiently increased
Hyaluronic Acid Content Stimulated, Average ([3]; 10 ppm, 72 h, vs negative control = 100%): 164.6%
Hyaluronic Acid Content Stimulated, Average ([3]; 100 ppm, 72 h, vs negative control = 100%): 133.1%
Hyaluronic Acid Content Stimulated, Average ([3]; 1000 ppm, 72 h, vs negative control = 100%): 148.9%
Hyaluronic Acid Content Stimulated, Average ([3]; 2500 ppm, 72 h, vs negative control = 100%): 165.0%
Hyaluronic Acid Content Stimulated, Average [3, 8]: 149.0%
Hyaluronic Acid Content Stimulated, single entries [3, 8]: 110.3% and 214.1% and 161.9% and 109.6%
Hyaluronic Acid Content Stimulated, Average ([3]; 7500 ppm, 72 h, vs negative control = 100%): 91.0%
Hyaluronic Acid Content Stimulated, Average ([3]; 10000 ppm, 72 h, vs negative control = 100%): 89.4%
cell viability [4]: inhibited
Hyaluronic Acid Content Stimulated, Average ([5]; 1.25 ppm): 112.6%
Hyaluronic Acid Content Stimulated, single entries ([5]; 1.25 ppm): 102.1% and 126.8% and 102.4% and 119.0%
Hyaluronic Acid Content Stimulated, Average ([5]; 2.5 ppm): 136.7%
Hyaluronic Acid Content Stimulated, single entries ([5]; 2.5 ppm): 149.7% and 125.3% and 111.4% and 160.5%
Hyaluronic Acid Content Stimulated, Average ([5]; 5 ppm): 123.1%
Hyaluronic Acid Content Stimulated, single entries ([5]; 5 ppm): 110.6% and 110.9% and 103.8% and 167.0%
Hyaluronic Acid Content Stimulated, Average ([5]; 7.5 ppm): 134.0%
Hyaluronic Acid Content Stimulated, Average ([5]; 10 ppm): 97.7%
Hyaluronic Acid Content Stimulated, single entries ([5]; 10 ppm): 89.1% and 101.2% and 91.2% and 109.5%
Hyaluronic Acid Content Stimulated, Average ([5]; 100 ppm): 121.9%
Hyaluronic Acid Content Stimulated, Average ([5]; 1000 ppm): 133.9%
Hyaluronic Acid Content Stimulated, single entries ([5]; 1000 ppm): 125.4% and 134.8% and 122.6% and 152.7%
Hyaluronic Acid Content Stimulated, Average ([5]; 2500 ppm): 103.6%
Hyaluronic Acid Content Stimulated, single entries ([5]; 2500 ppm): 99.2% and 96.7% and 78.7% and 140.0%
Hyaluronic Acid Content Stimulated, Average ([5]; 5000 ppm): 91.0%
Hyaluronic Acid Content Stimulated, single entries ([5]; 5000 ppm): 110.0% and 70.6% and 103.2% and 80.3%
Hyaluronic Acid Content Stimulated, Average ([5]; 7500 ppm): 73.1%
Hyaluronic Acid Content Stimulated, Average ([5]; 10000 ppm): 40.7%
Hyaluronic Acid Content Stimulated, single entries ([5]; 10000 ppm): 50.9% and 32.1% and 37.2% and 42.4%
stimulated hyaluronic acid production, dose dependence (in words) ([5]; about 1000-10 ppm): dose-dependently
Hyaluronic Acid Content Stimulated, Average ([6]; 10 ppm): 107.2%
Hyaluronic Acid Content Stimulated, single entries ([6]; 10 ppm): 92.7% and 123.3% and 105.7%
Hyaluronic Acid Content Stimulated, Average ([6]; 100 ppm): 148.8%
Hyaluronic Acid Content Stimulated, single entries ([6]; 100 ppm): 200.9% and 130.3% and 115.1%
stimulated hyaluronic acid production, dose dependence (in words) ([6]; 1000-10 ppm): dose-dependently
Hyaluronic Acid Content Stimulated, Average ([6]; 1000 ppm): 182.7%
Hyaluronic Acid Content Stimulated, single entries ([6]; 1000 ppm): 170.1% and 172.6%
Hyaluronic Acid Content Stimulated, Average ([6]; 10000 ppm): 32.5%
cell viability [7]: inhibited

O=C1O[C@H]([C@@H](O)CO)C(O)=C1O [Ascorbic Acid, ascorbic acid]
stimulation of hyaluronic acid production (in words) ([1]; 2-100 ppm, comparing to the negative control): can NOT stimulate hyaluronic acid production; also recorded: cannot be helpful
Hyaluronic Acid Content Stimulated, Average ([1]; 2 ppm, Table 5): 94%
Hyaluronic Acid Content Stimulated, single entries ([1]; 2 ppm, Table 5): 99% and 64% and 119%
Hyaluronic Acid Content Stimulated, Average ([1]; 10 ppm, Table 5): 101%
Hyaluronic Acid Content Stimulated, single entries ([1]; 10 ppm, Table 5): 93% and 108% and 101%
Hyaluronic Acid Content Stimulated, Average ([1]; 50 ppm, Table 5): 102%
Hyaluronic Acid Content Stimulated, single entries ([1]; 50 ppm, Table 5): 105% and 100% and 102%
Hyaluronic Acid Content Stimulated, Average ([1]; 100 ppm, Table 5): 91%
Hyaluronic Acid Content Stimulated, single entries ([1]; 100 ppm, Table 5): 87% and 93% and 94%
